Series [1] can be described thus: Cell viability assay (CellTiter 96), Vero cells. The format is cell-based, African green monkey. The note with it: African green monkey; for CC50 at 36 h: 36 h post-treatment; for CC50 at 72 h: 72 h post-treatment. Here is the method:
(§1) Cell viability in Vero and A549 cells was measured using the CellTiter 96 Non-Radioactive Cell Proliferation assay (Promega) following the manufacturer’s instructions. […] Plates were incubated at 37°C in a 5% CO2 atmosphere for 36 or 72 h. Samples were treated with 15 μl of Dye Solution and incubated at 37°C in a 5% CO2 atmosphere for 4 h. Next, cells were treated with 100 μl of Solubilization Solution/Stop Mix and absorbance at 570 nm was measured using a Vmax kinetic microplate reader (Molecular Devices, Waltham, MA, United States). Viability of compound-treated cells was calculated as a percentage relative to values obtained with DMSO-treated cells. Non-linear regression curves and the median cytotoxic concentration (CC50) were calculated using GraphPad Prism software version 8.0.

A further series concerns Vero cells. Briefly: Cell viability assay (CellTiter 96), Vero cells. The format is cell-based, African green monkey. The settings on record: 36 or 72 h post-treatment, up to highest concentration tested (1,000 μM). Here is the method:
as §1

A short description of series [2]: Cell viability assay (CellTiter 96), A549 cells. It is filed as cell-based, human. The settings on record: human; for CC50 at 36 h: 36 h post-treatment; for CC50 at 72 h: 72 h post-treatment. Here is the method: as §1
In another series the test system is A549 cells. Briefly: Cell viability assay (CellTiter 96), A549 cells. The format is cell-based, human. The settings on record: 36 or 72 h post-treatment, up to highest concentration tested (1,000 μM). Here is the method:
as §1

The subject of series [3] is ZIKV Paraiba/2015. Description: Microplaque reduction assay, ZIKV Paraiba/2015 in Vero cells, post-infection treatment. It is filed as cell-based. The note with it: for selectivity ratio at 36 h: African green monkey, Vero cells infected with ZIKV Paraiba/2015, Paraiba/2015, Vero cells, read-out: SI (selective index, CC50/IC50); for IC50: Zika virus, Vero.
Series [4] relates to ZIKV Paraiba/2015. Description: Microplaque reduction assay, ZIKV Paraiba/2015 in A549 cells, post-infection treatment. The format is cell-based. The settings on record: for IC50: Zika virus, A549, 36 h; for selectivity ratio at 36 h: human, A549 cells infected with ZIKV Paraiba/2015, Paraiba/2015, A549 cells, post-treatment, read-out: SI (selective index, CC50/IC50). On the technique in general: Plaque reduction counts the foci of infection that form in a cell layer.

Series [5] has as its system ZIKV Paraiba/2015. Description: Microplaque reduction assay, pre-treatment of Vero cells before ZIKV Paraiba/2015 infection. It is filed as cell-based. The note with it: for IC50: Zika virus, Vero, fixed 36 h p.i.
For series [6], the system named is ZIKV Paraiba/2015. Briefly: Virus growth kinetics, ZIKV Paraiba/2015 in Vero cells. It is filed as cell-based, Zika virus. On the procedure:
(§2) At 12, 24, 48, and 72 h post-infection (h p.i.), tissue culture supernatants were collected and titrated on Vero cells by immunostaining as described previously ([Marquez-Jurado et al., 2018]).
(§3) Dotted line indicates the limit of detection (20 FFU/ml).

Series [7] deals with ZIKV Paraiba/2015. Description: Virus growth kinetics, ZIKV Paraiba/2015 in A549 cells. It is filed as cell-based, Zika virus. Here is the method:
as §2, §3

Series [8] deals with ZIKV-induced CPE in Vero cells. Briefly: ZIKV-induced cytopathic effect (light microscope), Vero cells. It is filed as cell-based, African green monkey. The note with it: MOI 0.1, 48 h p.i., 25 μM and more clearly 250 μM. (Protection from cytopathic effect is a common read-out in antiviral testing.)
Series [9] deals with ZIKV-induced CPE in A549 cells. Description: ZIKV-induced cytopathic effect (light microscope), A549 cells. The format is cell-based, human. The settings on record: MOI 0.1, 48 h p.i., 25 μM and more clearly 250 μM.
A further series deals with Vaccinia virus. The note with it: 30 mg/kg/day, ref Smee et al., 2010; cited from earlier work.
The next series concerns ZIKV Uganda/1947. Description: Microplaque reduction assay, ZIKV Uganda/1947 in Vero cells.
Series [10] deals with caspase 3 and 7 activities. Description: Apoptosis assay (Caspase-Glo 3/7), ZIKV-infected Vero cells. The settings on record: 250 μM.
Series [11] concerns caspase 3 and 7 activities. Description: Apoptosis assay (Caspase-Glo 3/7), ZIKV-infected A549 cells. The settings on record: 250 μM.
The next series deals with ZIKV Nigeria/1968. Description: Microplaque reduction assay, ZIKV Nigeria/1968 in Vero cells.
The subject of the next series is ZIKV Puerto Rico/2015. Briefly: Microplaque reduction assay, ZIKV Puerto Rico/2015 in Vero cells.
Series [12] has as its system ZIKV French Polynesia/2013. Briefly: Microplaque reduction assay, ZIKV French Polynesia/2013 in Vero cells.
The subject of series [13] is ZIKV. Further details: method as in Bullard-Feibelman et al., 2017. The settings on record: Huh-7 cells; ref Bullard-Feibelman et al., 2017; cited from earlier work.
The test system of series [14] is ZIKV. Further details: method as in Bullard-Feibelman et al., 2017. The settings on record: Jar cells; ref Bullard-Feibelman et al., 2017; cited from earlier work.
In series [15] the test system is ZIKV. Details: method as in Kuivanen et al., 2017. The settings on record: human retinal pigment epithelial (RPE) cells; ref Kuivanen et al., 2017; cited from earlier work.
For series [16], the system named is ZIKV. Details: method as in Yang et al., 2018. The settings on record: SNB-19 cells; ref Yang et al., 2018; cited from earlier work.
For series [17], the system named is ZIKV. Details: method as in Yang et al., 2018. The note with it: ENV+ cells; ref Yang et al., 2018; cited from earlier work.
The mark [18] stands for this setting: reading time not stated at the place (assay read at 36 and 72 h).

Where two headings read alike, the source gives them in different places.

As for `O=C(O)C1=CC(=C(c2ccc(O)c(C(=O)O)c2)c2ccc(O)c(C(=O)O)c2)C=CC1=O` [ATA, aurintricarboxylic acid], the CC50 at 36 h in series [1] and in series [2] was over 1000 µM throughout. Further, the CC50 at 72 h in [1] and in [2] was over 1000 µM throughout. In addition, the CC50 in [1] (setting [18]) and in series [2] (setting [18]) was over 1000 µM each time. The “toxicity (cell viability)” value with Vero cells and in the series on A549 cells was “did not observe any toxicity” in each case. In addition, the selectivity ratio at 36 h with ZIKV Paraiba/2015 [3] (post-treatment, 36 h) is 72.1; in the series with ZIKV Paraiba/2015 [4] it was 26.3. Further, the “SI (selective index, CC50/IC50)” value in the series on ZIKV Paraiba/2015 [3] (Paraiba/2015, Vero cells, post-treatment, 36 h) is recorded as over 72.10. For the same compound, the “SI (selective index), range in Vero cells” value in the series on ZIKV Paraiba/2015 [3] (Vero cells, range over all ZIKV strains and pre-/post-treatment settings of this study) is listed as 56.98–95.24. For the same compound, the IC50 – broadly, the point on the concentration scale where inhibition reaches its midpoint – stood at 13.9 ± 1.09 µM with ZIKV Paraiba/2015 [3] (36 h); 33.3 ± 1.13 µM in the series on ZIKV Paraiba/2015 [4]; 14.3 ± 1.06 µM with ZIKV Paraiba/2015 [5] (pre-treatment 12 h before infection); 13.2 ± 1.05 µM in the series with ZIKV Paraiba/2015 [5] (pre-treatment 24 h before infection); 12.6 ± 1.02 µM in the series on ZIKV Paraiba/2015 [5] (pre-treatment 48 h before infection); 10.5 ± 1.05 µM in the series on ZIKV Paraiba/2015 [5] (pre-treatment 72 h before infection). Besides, the IC50 was found to be 15.1 ± 1.19 µM in the series with ZIKV Uganda/1947 (Zika virus, Vero, 48 h); 16 ± 1.02 µM in the series on ZIKV Nigeria/1968 (Zika virus, Vero, 60 h); 17.6 ± 1.16 µM with ZIKV Puerto Rico/2015 (Zika virus, Vero, 48 h); 13.9 ± 1.01 µM in series [12] (Zika virus, Vero, 48 h). Besides, the selectivity ratio at 12 h in the series with ZIKV Paraiba/2015 [5] (African green monkey, pre-treatment 12 h, read-out: SI (selective index, CC50/IC50)) was over 69.8. Besides, the selectivity ratio at 24 h in the series on ZIKV Paraiba/2015 [5] (African green monkey, pre-treatment 24 h, read-out: SI (selective index, CC50/IC50)) was over 75.9. The selectivity ratio at 48 h is over 79.4 in the series with ZIKV Paraiba/2015 [5] (African green monkey, pre-treatment 48 h, read-out: SI (selective index, CC50/IC50)); over 66.3 in the series on ZIKV Uganda/1947 (African green monkey, Vero cells infected with ZIKV Uganda/1947); over 57 with ZIKV Puerto Rico/2015 (African green monkey, Vero cells infected with ZIKV Puerto Rico/2015); over 76.8 in [12] (African green monkey, Vero cells infected with ZIKV French Polynesia/2013). In addition, the selectivity ratio at 72 h in the series with ZIKV Paraiba/2015 [5] (African green monkey, pre-treatment 72 h, read-out: SI (selective index, CC50/IC50)) was over 95.2. Further, the “ZIKV replication (viral titer in supernatant)” value with ZIKV Paraiba/2015 [6] (MOI 0.1, 2.5 μM) is given as “partial viral inhibition”; with ZIKV Paraiba/2015 [6] (MOI 0.1, 250 μM) it was “completely inhibited”; in the series with ZIKV Paraiba/2015 [7] (MOI 0.1, 25 μM) it was “partial viral inhibition”; with ZIKV Paraiba/2015 [7] (MOI 0.1, 250 μM), “completely inhibited”. Besides, the “ZIKV-induced CPE” value in [8] and in series [9] was “able to prevent ZIKV-induced CPE” in each case. Moreover, in the series with Vaccinia virus, the “protection of mice from a lethal challenge” value was “did not protect”. For the same compound, the entries for the “caspase 3 and 7 induction as compared to mock-infected cells” value in [10] and in series [11] were 0.4 fold and 1.7 fold, respectively. In addition, the selectivity ratio at 60 h in the series on ZIKV Nigeria/1968 (African green monkey, Vero cells infected with ZIKV Nigeria/1968) is over 62.6.

As for `CC(C)OC(=O)[C@H](C)N[P@](=O)(OC[C@H]1O[C@@H](n2ccc(=O)[nH]c2=O)[C@](C)(F)[C@@H]1O)Oc1ccccc1` [sofosbuvir], the figures for the SI in the series on ZIKV [13] and in the series with ZIKV [14] were over 52.63 and over 90.9, respectively.

Turning to `Nc1ccn([C@@H]2O[C@H](CO)[C@@H](O)C2(F)F)c(=O)n1` [gemcitabine], in the series on ZIKV [15], the SI was > 1,000.

For the compound `CC[C@H]1CN2CCc3cc(OC)c(OC)cc3[C@@H]2C[C@@H]1C[C@H]1NCCc2cc(OC)c(OC)cc21` [emetine], the results for the SI in the series on ZIKV [16] and in the series on ZIKV [17] were 9.84 and 2.88, respectively.

As for `CCOC(=O)c1c(CSc2ccccc2)n(C)c2cc(Br)c(O)c(CN(C)C)c12` [ARB, Arbidol], the CC50 (usually the concentration giving 50% cytotoxicity) at 36 h in series [1] was 74.7 ± 1.09 µM; in series [2] it was 114.6 ± 1.08 µM. Besides, the half-maximal cytotoxic concentration (CC50) at 72 h in series [1] was found to be 59.4 ± 1.1 µM; in series [2], 91 ± 1.08 µM. For the same compound, the selectivity ratio at 36 h with ZIKV Paraiba/2015 [3] (post-treatment, 36 h) was determined as 4.11; with ZIKV Paraiba/2015 [4] it was 2.21. In addition, the IC50 with ZIKV Paraiba/2015 [3] (36 h) amounted to 18.2 ± 1.16 µM; in the series with ZIKV Paraiba/2015 [4], 51.9 ± 1.08 µM.

On to `COC1=CC(c2cc3ccccc3[nH]2)=N/C1=C\c1[nH]c(C)cc1C` [obatoclax], for which, in the series on ZIKV [15], the SI is 65.

`C[C@H]1C/C=C/Cc2cccc(O)c2C(=O)O[C@@H](C/C=C/NC(=O)C#Cc2ccccc2)C[C@H]1O` [saliphenylhalamide]: the SI in the series with ZIKV [15] is reported as over 200.

The record behind these values is publication PMC6473159, “Potent Inhibition of Zika Virus Replication by Aurintricarboxylic Acid” (Frontiers in Microbiology, 2019).
